Where a name gives a salt, the structure may show the parent alone.
Columns and labels:
[1] = cited from earlier work
[2] = infusion time beyond 60 minutes; cited from earlier work
[3] = controlled room temperature 20° C. to 25° C.; cited from earlier work
[4] = cited from earlier work; remark: listed apart in the source
human immune cells = assay: Pharmacodynamic response (IFN-γ) in human immune cells in vitro; format: cell-based
[5] = tested on: non-human primates (rhesus monkeys); assay: Pharmacodynamic response (IFN-γ) in non-human primates in vitro and in vivo; settings: both in vitro and in vivo
[6] = tested on: Irradiated, Unsupported Rhesus Monkeys; assay: Radiomitigation study in myeloablated, lethally irradiated, unsupported nonhuman primates; format: in vivo
Description: FIG. 3: Kaplan-Meier Survival Curves of Irradiated, Unsupported Monkeys Treated with HemaMax™. Pooled HemaMax™ dosing group is shown. No antibiotics were used during the study. One animal with a broken tooth was excluded from the study because of an unrelated death to the study. p<0.05 pooled treatment groups.
FIGS. 4A-4B: Leukocyte (A) and Thrombocyte (B) Counts in Irradiated, Unsupported Rhesus Monkeys Treated With HemaMax™. Three analyses were conducted to assess differences in blood cell counts during the study period.
FIG. 4 describes […] Counts in Irradiated, Unsupported Rhesus Monkeys Treated With HemaMax™. Three analyses were conducted to assess differences in blood cell counts during the study period.

Lewis Lung tumor cells = assay: Lewis Lung mouse tumor model with concomitant GC chemotherapy, tumor volume; format: in vivo; settings: 20 ng subcutaneously before, after or before/after GC; differences not statistically significant
Description: The effect of rMuIL-12 administration on tumor growth in a mouse tumor chemotherapy model was evaluated. The tumor model used Lewis Lung tumor cells that were subcutaneously injected (100,000 cells) in each mouse. At a given time after tumor inoculation, mice were treated with chemotherapy. The gemcitabine/carboplatin chemotherapy regimen as described above was used and administered IP. rMuIL-12 was administered subcutaneously (20 ng) before, after, or before/after chemotherapy as indicated below.
Pre-dosing (n=16): rMuIL-12 was given 24 hours before chemotherapy treatment,
Post-dosing (n=16): rMuIL-12 was administered 48 hours after chemotherapy treatment
Pre/post dosing (n=16): rMuIL-12 was given 24 hours before chemotherapy and 48 hours after chemotherapy. Control (n=16)
Tumor volume was monitored over time to compared tumor growth in the control compared to rMuIL-12 treated mice. […] The differences among groups in tumor growth were not statistically significant.

femoral bone marrow = assay: Hematopoietic recovery in irradiated mice (TBI 8.0 Gy), femoral bone marrow IHC for IL-12Rβ2; format: in vivo; settings: 20 ng/mouse subcutaneously post irradiation, 12 days after irradiation
Description: FIGS. 6A-6F: Murine IL-12 Promotes Hematopoietic Recovery in Irradiated Mice. Representative sections of femoral bone marrow from non-irradiated, untreated mice that were stained for IL-12Rβ2 are shown in (A). Animals were subjected to TBI (8.0 Gy) and subsequently received vehicle or rMuIL-12 (20 ng/mouse) subcutaneously at the indicated times post irradiation (B-F). Femoral bone marrow was immunohistochemically stained for IL-12Rβ2 (orange color) 12 days after irradiation. […] Magnification=100×.
By way of example, FIG. 6 describes Murine IL-12 Promotes Hematopoietic Recovery in Irradiated Mice. Representative sections of femoral bone marrow from non-irradiated, untreated mice that were stained for IL-12Rβ2 (orange color) are shown in (a). Animals were subjected to TBI (8.0 Gy) and subsequently received vehicle or rMuIL-12 (20 ng/mouse) subcutaneously at the indicated times post irradiation (b-f). Femoral bone marrow was immunohistochemically stained for IL-12Rβ2 (orange color) 12 days after irradiation.

platelets = assay: Chemotherapy induced thrombocytopenia (CIT) model, gemcitabine/carboplatin (GC) chemotherapy, platelet counts; format: in vivo, mice; settings: for % platelet counts from baseline (average and standard deviation): day 8
Description: The effect of rMuIL-12 administration in conjunction with gemcitabine/carboplatin chemotherapy (GC) (6.6 mg gemcitabine dose+2 mg carboplatin) was examined. Mice received GC intravenously on day 0.
Pre-dosing: rMuIL-12 was given 24 hours before chemotherapy treatment (n=18)
Post-dosing: rMuIL-12 was administered 48 hours after chemotherapy treatment (n=19) Pre/post dosing: rMuIL-12 was given 24 hours before chemotherapy and 48 hours after chemotherapy (n=13)
Averages of % platelet counts from baseline and standard deviations for each group at day 8 were: […]

EL4 lymphoma tumor model = assay: Tumor volume after radiation (625 rad), EL4 lymphoma tumor model; format: in vivo, mice; settings: 625 rad day 1 and second dose day 22, pre, post and pre-post radiation dosing groups, endpoint of tumor volume evaluation
Description: (§1) FIGS. 2A-2B: Relative Changes in Tumor Volumes for Vehicle and rMuIL-12 Treatment Groups Following Radiation (625 rad). Changes in tumor volumes over the course of the experiment are shown for the EL4 lymphoma tumor model (A) and the Lewis Lung cancer tumor model (B). Mice in both tumor models were given 625 rad on day 1. Mice in both tumor models were given a second dose of radiation on day 22 following the initial radiation dose.
as §1, with “FIG. 2 A-B describe” for “FIGS. 2A-2B:”, “(a)” for “(A)”, “(b).” for “(B).”

Lewis Lung tumor = Lewis Lung tumor model with two rounds of gemcitabine monotherapy, tumor volume; format: in vivo, mouse; settings: gemcitabine 6.6 mg IP twice, one week apart; differences not statistically significant
Description: The study evaluate the effect of rMuIL-12 on tumor growth in a mouse chemotherapy model was followed up with a second study to examine the growth in the same Lewis Lung model when gemcitabine was used as monotherapy and administered two times, one week apart. rMuIL-12 was also administered as pre-dosing and post-dosing, as described above, and also with a 24 hour post group and on the same day as chemotherapy administration. rMuIL-12 was administered at either both weeks of chemotherapy or only the first week. There were five groups with n=5 for each group. These groups are described below: Chemotherapy once weekly: Gemcitabine only, administered IP, 6.6 mg rMuIL-12 given weekly, three schedules: 24 hours pre-chemotherapy (Pre); Same day as chemotherapy (SD); 24 hours post chemotherapy (Post1=24 hrs-post; Post2=48 hrs-post).
By way of example, FIG. 10 describes Lewis Lung Tumor Volume of Mice Under Monotherapy With Gemcitabine Receiving rMuIL-12. Day 0 is the time of the first chemotherapy. The second chemotherapy administration took place at day 7. […] The differences in growth among groups were not statistically significant.

[7] = tested on: neutrophils, red blood cells and platelets; assay: Blood recovery after myelosuppressive radiation (625 rad), Lewis lung cancer model; format: in vivo, mice; settings: days 14-21
Description: (§2) FIGS. 1A-1B: Blood Recovery Profiles for Vehicle and rMuIL-12 Administered Before and After Myelosuppresive Radiation (625 rad). Blood cell recovery profiles are shown for the EL4 lymphoma tumor model (A) and the Lewis lung cancer model (B) for neutrophils, red blood cells and platelets. Pre-radiation blood values reflect an average of all animals in both groups before radiation and tumor inoculation. The normal threshold value for murine blood cell counts is indicated by the dashed line.
(§3) Platelet recovery profiles are shown for the EL4 lymphoma tumor model (a) and the Lewis lung cancer model (b).

[8] = tested on: neutrophils, red blood cells and platelets; assay: Blood recovery after myelosuppressive radiation (625 rad), EL4 lymphoma tumor model; format: in vivo, mice; settings: days 14-21
Description: as §2, §3

[9] = tested on: Lewis Lung cancer tumor model; assay: Tumor volume after radiation (625 rad), Lewis Lung cancer tumor model; format: in vivo, mice; settings: 625 rad day 1 and second dose day 22, rMuIL-12 post-treatment, endpoint of tumor growth evaluation
Description: as §1
as §1, with “FIG. 2 A-B describe” for “FIGS. 2A-2B:”, “(a)” for “(A)”, “(b).” for “(B).”

Lin-IL-12Rβ2-cells = assay: Megacult colony culture with and without IL-12; format: cell-based; settings: megacult medium, 5000 cells/slide
Description: FIG. 7: Lin-IL-12Rβ2-cells were plated in megacult medium at 5000 cells/slide with and without IL-12.
By way of example, FIG. 7 describes Lin-IL-12RB2-cells were plated in megacult medium at 5000 cells/slide with and without IL-12.

[10] = days 12 and 14, 100 ng/kg and 250 ng/kg doses
[11] = rMuIL-12 before and after 625 rad

Nc1ccn([C@@H]2O[C@H](CO)[C@@H](O)C2(F)F)c(=O)n1 [Gemzar, 2′-deoy-2′,2′-difluorocytidine monohydrochloride (β-isomer)]
acute dermal irritation ([1]; animal studies): not been observed | rabbits with drug-related systemic toxicities (death, hypoactivity, nasal discharge, shallow breathing) due to dermal absorption ([1]; rabbits, dermal): two of three | toxicity on prolongation of infusion time beyond 60 minutes [2]: minutes has been shown to increase toxicity. | stability of prepared solutions [3]: 24 h | maximum concentration upon reconstitution (solubility considerations) ([4]; 0.9% Sodium Chloride Injection): 40 mg/mL | solubility in ethanol and polar organic solvents ([4]; ethanol and polar organic solvents): practically insoluble in ethanol and polar organic | solubility in methanol ([4]; methanol): slightly soluble | solubility in water ([4]; water): soluble

HemaMax: recombinant human IL-12, heterodimeric glycoprotein of p35 and p40 subunits, 503 amino acids, produced in CHO cells
pharmacodynamic response (interferon-γ [IFN-γ]) (human immune cells): potently elicits | pharmacodynamic response (interferon-γ [IFN-γ]) [5]: potently elicits | numbers of leukocytes as compared to vehicle [6, 10]: significantly higher numbers | numbers of thrombocytes as compared to vehicle [6, 10]: significantly higher numbers | monkeys that required a platelet transfusion ([6]; lethal radiation NHP study, vehicle 80%): 25% | platelet and WBC nadirs ([6]; lethally irradiated NHP): attenuates | survival ([6]; lethally irradiated NHP, no antibiotics, pooled dosing groups): increases survival

B1: rMuIL-12: murine recombinant IL-12, the murine counterpart to HemaMax (protein, UniProt P43431 23-215; P43432 23-335, looked up)
Interleukin-12 subunit alpha: RVIPVSGPARCLSQSRNLLKTTDDMVKTAREKLKHYSCTAEDIDHEDITRDQTSTLKTCLPLELHKNESCLATRETSSTTRGSCLPPQKTSLMMTLCLGSIYEDLKMYQTEFQAINAALQNHNHQQIILDKGMLVAIDELMQSLNHNGETLRQKPPVGEADPYRVKMKLCILLHAFSTRVVTINRVMGYLSSA
Interleukin-12 subunit beta: MWELEKDVYVVEVDWTPDAPGETVNLTCDTPEEDDITWTSDQRHGVIGSGKTLTITVKEFLDAGQYTCHKGGETLSHSHLLLHKKENGIWSTEILKNFKNKTFLKCEAPNYSGRFTCSWLVQRNMDLKFNIKSSSSSPDSRAVTCGMASLSAEKVTLDQRDYEKYSVSCQEDVTCPTAEETLPIELALEARQQNKYENYSTSFFIRDIIKPDPPKNLQMKPLKNSQVEVSWEYPDSWSTPHSYFSLKFFVRIQRKKEKMKETEEGCNQKGAFLVEKTSTEVQCKGGNVCVQAQDRYYNSSCSKWACVPCRVRS
tumor growth (tumor volume) (Lewis Lung tumor cells): did not increase tumor growth | hematopoietic recovery in femoral bone marrow (femoral bone marrow): hematopoietic reconstitution | animals with a decrease in platelets of more than 33% (platelets; all rMuIL-12 treated groups): 0 out of 50 | % platelet counts from baseline (average and standard deviation) (platelets; Post-dosing: 48 hours after chemotherapy): 110±37% | % platelet counts from baseline (average and standard deviation) (platelets; Pre-dosing: 24 hours before chemotherapy): 79±34% | % platelet counts from baseline (average and standard deviation) (platelets; Pre/Post dosing: 24 hours before and 48 hours after chemotherapy): 111±33% | mice with platelet levels that dropped one-third of baseline level or more (platelets; rMuIL-12 prior to, after or both prior to and after chemotherapy, 8 days after chemotherapy): 0% | tumor growth % T/C (EL4 lymphoma tumor model): < 50% | tumor growth rate (tumor volume) (Lewis Lung tumor): did not increase the tumor growth rate | platelet counts as compared to the vehicle control ([7]; 625 rad): statistically significant improvements | blood cell counts as compared to the vehicle control [7, 11]: statistically significant improvements | platelet counts as compared to the vehicle control ([8]; 625 rad): statistically significant improvements | blood cell counts as compared to the vehicle control [8, 11]: statistically significant improvements | tumor growth % T/C [9]: < 50%

B2: IL-12: heterodimeric cytokine comprising p40 and p35 subunits; species of the IL-12 used in the megacult culture not stated (protein, UniProt P29459 23-219; P29460 23-328, looked up)
Interleukin-12 subunit alpha: RNLPVATPDPGMFPCLHHSQNLLRAVSNMLQKARQTLEFYPCTSEEIDHEDITKDKTSTVEACLPLELTKNESCLNSRETSFITNGSCLASRKTSFMMALCLSSIYEDLKMYQVEFKTMNAKLLMDPKRQIFLDQNMLAVIDELMQALNFNSETVPQKSSLEEPDFYKTKIKLCILLHAFRIRAVTIDRVMSYLNAS
Interleukin-12 subunit beta: IWELKKDVYVVELDWYPDAPGEMVVLTCDTPEEDGITWTLDQSSEVLGSGKTLTIQVKEFGDAGQYTCHKGGEVLSHSLLLLHKKEDGIWSTDILKDQKEPKNKTFLRCEAKNYSGRFTCWWLTTISTDLTFSVKSSRGSSDPQGVTCGAATLSAERVRGDNKEYEYSVECQEDSACPAAEESLPIEVMVDAVHKLKYENYTSSFFIRDIIKPDPPKNLQLKPLKNSRQVEVSWEYPDTWSTPHSYFSLTFCVQVQGKSKREKKDRVFTDKTSATVICRKNASISVRAQDRYYSSSWSEWASVPCS
colony size in comparison to media alone (Lin-IL-12Rβ2-cells): larger colonies

— patent publication US20160120949A1, “USES OF IL-12 IN HEMATOPOIETIC IMMUNOTHERAPY (HIT)” (Neumedicines, Inc., priority 2014, published 2016)
